Measured values as given in patent US20020009713A1, “Methods for identifying modulators of neuronal growth” (priority 2000, published 2002).

How the values were obtained:
[1] = test system: rat sympathetic neurons; assay: MTT survival assay of cultured sympathetic neurons; assay type: cell-based; conditions: cultured in NGF or NGF+KCl
Protocol: Neurons were plated at low density (approximately one ganglion/well) in Nunclon™ 4-well culture dishes (Gibco BRL, Burlington, Ontario, Canada), coated with either rat tail collagen or poly-D-lysine and laminin (both from Collaborative Biomedical Products, Bedford, Mass.). Culture medium was UltraCulture (BioWhittaker, Walkersville, Md.), supplemented with 3% rat serum (Harlan Bioproducts, Madison, Wis.), 2 mM glutamine, 100 U/ml penicillin, 100 μg/ml streptomycin (all from BioWhittaker), and for the first two days, 7 μM cytosine arabinoside (Sigma-Aldrich Canada Ltd., Oakville, Ontario, Canada).
NGF-dependent neurons were selected by culturing sympathetic neurons for five days in the presence of 50 ng/ml NGF. Neurons were washed three times for one hour each in neurotrophin-free media, and were then fed with media containing 10 ng/ml NGF alone, or various concentrations of NGF plus either 100 ng/ml BDNF, 10 μg/ml αBDNF, or a 1:100 dilution of antiserum containing the p75^NTR antibody, REX (Weskamp and Reichardt, Neuron 6: 649-663, 1991). Each condition was repeated in triplicate, and analysis of survival was performed 48 hours later by using nonradioactive cell proliferation (MTT) assays (Celltitre 96; Promega; Belliveau et al., J. Cell Biol. 136:375-388, 1997). Specifically, 50 μl of the MTT reagent was added to 500 μl media in each well, and incubated for two hours at 37° C. After aspiration of the MTT containing media, 100 μl of a 0.065N HCl/isopropanol mixture was added to each well to lyse the cells, and colorimetric analysis was performed using an ELISA reader. For rat sympathetic neurons, 10 ng/ml NGF represents 100% survival, therefore all other values were considered to be relative to 10 ng/ml NGF. For mouse neurons, 7.5 ng/ml NGF represents 100% survival, and was thus considered to be the 100% survival threshold for neuritogenesis experiments.

[2] = test system: sympathetic neurons exogenously expressing TrkB; conditions: U0126 added with 25 ng/ml BDNF, dose-dependent
Protocol: We transduced postnatal sympathetic neurons with an adenovirus encoding TrkB. In Campenot dishes, these neurons grow processes into compartments containing 25 ng/ml BDNF.

[3] = test system: sympathetic neurons; assay: Quantitative dot-blot of MAP2 association with microtubules and microtubule stability; assay type: cell-based, rat; conditions: neurons maintained in NGF or NGF+KCl
Protocol: FIG. 22 is a schematic illustration showing immuno-dot blot analysis of MAP2 association and tubulin dynamics in SCG neurons. […]
Microtubules were isolated from cultured sympathetic neurons, and the relative amount of MAP2 present per microgram tubulin was determined using quantitative dot-blot analysis. […] Depolarization enhances MAP2 levels and CamKII phosphorylation in sympathetic neurons. We performed western blot analysis of sympathetic neurons treated with 10 ng/ml NGF, 50 mM KCl, or NGF+KCl. Lysates containing equal amounts of protein were separated by SDS-PAGE, transferred to nitrocellulose, and then probed for MAP2, phosphorylated-CamKII, phosphorylated-ERKs, or total ERK protein. KCl increases the amount of MAP2 present in sympathetic neurons, and enhances CamKII phosphorylation.
Inhibition of either CamKII or MEK is sufficient to inhibit activitydependent dendrite formation. Immunocytochemical analysis for MAP2 on sympathetic neurons cultured in the presence of NGF+KCl with or without 10 um KN62, 75 um PD98059, 100 nM H-89 or 10 uM forskolin. […] In this study, microtubule stability was determined in sympathetic neurons maintained in NGF or NGF+KCl, and treated with selective pharmacological inhibitors.

[4] = test system: postnatal sympathetic neurons (SCG neurons); assay: Campenot chamber neurite growth assay; assay type: cell-based, rat; conditions: 50 μM U0126 with 10 ng/ml NGF
Protocol: We have devised a method for quantitatively assaying neurite growth. In this assay, the cell bodies of neurons are plated in Campenot chamber, a compartmentalized dish that has scratches or grooves in the matrix. The compartments are physically separated from each other by, for example, a Teflon® divider. The cells are placed in the central compartment. The scratches allow neurites to extend from the neuronal cell bodies and into adjacent compartments (FIG. 10A).
Neurites were induced to grow into HGF supplemented side compartments, and then visualized by staining against tubulin. Adenoviral-mediated expression of DN MEK in SCG neurons decreased neuritogenesis by 39% (FIGS. 10B, 10C).
We cultured postnatal sympathetic neurons in Campenot chambers. […] Addition of 50 μM U0126 in conjunction with 10 ng/ml NGF abrogates this growth while having no effects on cell survival (FIG. 15).

## N#CC(=C(/N)Sc1ccccc1N)/C(C#N)=C(\N)Sc1ccccc1N [U0126]
[1]
  survival of sympathetic neurons (MTT): None of these compounds perturbs
[2]
  TrkB-mediated neuronal growth: dramatically reduced
[3]
  KCl-induced increase in microtubule stability: completely inhibit
[4]
  NGF-induced neuronal growth into side compartment: abrogates
  cell survival: no effects
